Reference: US10781224B2, “Bis(oxymethyl)phosphinic acid and biogenic metal salts thereof as regulators of plant growth and development” (priority 2016, dated 2020)

Tests used:
Assay type in all cases: in vivo
[1] = test system: corn (Krasnodar 385 MV variety); test: Corn seed treatment with BHMPA salts: germination energy and germination rate
How it was run: (§1)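 Corn, winter wheat and rice seeds (50 per dish, on filter paper) were soaked for 1 h in BHMPA or its metal salts at 1·10^−6-1·10^−12%, with water as control. Germination energy was read on day 4 and germination rate on day 8 for wheat and day 7 for rice and corn, following GOST 12038-84, as the mean of four replicates.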

rice (Diamant variety) [2] = test: Rice seed treatment with BHMPA salts: germination energy and germination rate; conditions: for Germination energy / Germination rate: rice
How it was run: as §1

rice (Diamant variety) [3] = test: Rice seed treatment with BHMPA salts: germinating power; conditions: for Length, root / Length, root, + % to control / Length, sprout / Length, sprout, + % to control / Mass, dry, root / Mass, dry, root, + % to control / Mass, dry, sprout / Mass, dry, sprout, + % to control / Mass, wet, root / Mass, wet, root, + % to control / Mass, wet, sprout / Mass, wet, sprout, + % to control: rice seed treatment
How it was run: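 Seeds (50 per Petri dish on two layers of filter paper) soaked 1 h in BHMPA or its Ca, Mg, Na, Co, Mn, Cu or Zn salts at 1·10^−6-1·10^−12%, with water controls. Germination energy read on day 4, germination on day 8 (wheat) or day 7 (rice, corn), as % means of four replicates. Germinating power taken as root and sprout length plus wet and dry mass per 100 seedlings.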

[4] = 1·10^−9% solution, listed as Zn
[5] = comparative study vs Melaphen, 1·10^−8% solution
[6] = rice seed treatment, solution 1 · 10^−10%
[7] = comparison with Melaphen (Table XXXIII), solution 1 · 10^−9%
[8] = experimental solution 1 · 10^−6%
[9] = experimental solution 1 · 10^−7%

## O=P([O-])(CO)CO.O=P([O-])(CO)CO.[Zn+2] [Zn-salt, Zinc BHMPA Salt]
[1]; 1·10^−6% solution
  Germination energy: 77.7%
  Germination rate: 80.0%
[1]; 1·10^−7% solution
  Germination energy: 84.0%
  Germination rate: 86.7%
[1]; 1·10^−8% solution
  Germination energy: 88.3%
  Germination rate: 90.8%
[1]; 1·10^−9% solution
  Germination energy: 88.3%
  Germination rate: 90.8%
[1]; [4]
  Germination energy: 84.2%
  Germination rate: 86.7%
[1]; 1·10^−10% solution
  Germination energy: 82.3%
  Germination rate: 85.0%
[1]; 1·10^−11% solution
  Germination energy: 80.7%
  Germination rate: 83.3%
[1]; 1·10^−12% solution
  Germination energy: 79.0%
  Germination rate: 81.7%
[1]; [5]
  Germination energy: 88.0%
  Germination rate: 95.7%
Rice (Diamant variety) [2]; [6]
  Germination energy, %: 89.5%
  Germination rate, %: 96.5%
Rice (Diamant variety) [2]; 1·10^−6% solution
  Germination energy: 83.0%
  Germination rate: 89.0%
Rice (Diamant variety) [2]; 1·10^−7% solution
  Germination energy: 85.0%
  Germination rate: 91.7%
Rice (Diamant variety) [2]; 1·10^−8% solution
  Germination energy: 86.3%
  Germination rate: 94.3%
Rice (Diamant variety) [2]; 1·10^−9% solution
  Germination energy: 88.7%
  Germination rate: 96.0%
Rice (Diamant variety) [2]; 1·10^−10% solution
  Germination energy: 87.0%
  Germination rate: 94.0%
Rice (Diamant variety) [2]; 1·10^−11% solution
  Germination energy: 85.7%
  Germination rate: 91.3%
Rice (Diamant variety) [2]; 1·10^−12% solution
  Germination energy: 83.7%
  Germination rate: 89.0%
Rice (Diamant variety) [2]; [5]
  Germination energy: 89.5%
  Germination rate: 96.5%
Rice (Diamant variety) [3]; rice
  optimum concentration for treating rice seeds before sowing: 1·10^−9%
Rice (Diamant variety) [3]; [7]
  Length, root: 7.5 cm
  Length, root, + % to control: 56%
  Length, sprout: 4.8 cm
  Length, sprout, + % to control: 48%
  Mass, dry, root: 0.28 g/100 plantlings
  Mass, dry, root, + % to control: 33%
  Mass, dry, sprout: 0.32 g/100 plantlings
  Mass, dry, sprout, + % to control: 28%
  Mass, wet, root: 1.54 g/100 plantlings
  Mass, wet, root, + % to control: 57%
  Mass, wet, sprout: 2.57 g/100 plantlings
  Mass, wet, sprout, + % to control: 70%
Rice (Diamant variety) [3]; [8]
  Length, root: 6.2 cm
  Length, root, + % to control: 15%
  Length, sprout: 2.6 cm
  Length, sprout, + % to control: 8%
  Mass, dry, root: 0.19 g/100 plantlings
  Mass, dry, root, + % to control: 12%
  Mass, dry, sprout: 0.23 g/100 plantlings
  Mass, dry, sprout, + % to control: 4.5%
  Mass, wet, root: 1.04 g/100 plantlings
  Mass, wet, root, + % to control: 24%
  Mass, wet, sprout: 1.81 g/100 plantlings
  Mass, wet, sprout, + % to control: 24%
Rice (Diamant variety) [3]; [9]
  Length, root: 6.6 cm
  Length, root, + % to control: 22%
  Length, sprout: 2.8 cm
  Length, sprout, + % to control: 17%
  Mass, dry, root: 0.22 g/100 plantlings
  Mass, dry, root, + % to control: 29%
  Mass, dry, sprout: 0.27 g/100 plantlings
  Mass, dry, sprout, + % to control: 23%
